Assay results from patent publication US7854753B2, “Photokinetic delivery of biologically active substances using pulsed incoherent light” (Photokinetix, Inc., priority 2002, dated 2010).

Key:
[1] = volume of water for 1 g; cited from earlier work
[2] = Franz skin diffusion cell permeation (percutaneous absorption) under ambient, natural or pulsed incoherent LED light

## CC(=O)[C@H]1CC[C@H]2[C@@H]3CCC4=CC(=O)CC[C@]4(C)[C@H]3CC[C@]12C [Compound 18, Progesterone]
[1]
  Water Solubility (1 g): Insoluble
[2]; 350 nm LED, pulse rate 24 cps, 75% duty cycle
  Permeation 350: 149.91 μg/0.64 cm^2/25 hrs
[2]; 350 nm, 1.7 cps
  Permeation 1.7 cps: 2.58 μg/0.64 cm^2/25 hrs
[2]; 350 nm, 9.7 cps
  Permeation 9.7 cps: 2.80 μg/0.64 cm^2/25 hrs
[2]; 405 nm LED, pulse rate 24 cps, 75% duty cycle
  Permeation 405: 6.19 μg/0.64 cm^2/25 hrs
[2]; Dark control, ambient light absent
  Permeation Dark: 0.00 μg/0.64 cm^2/25 hrs
[2]; ambient cool fluorescent light only, 260-750 nm, 120 cps
  Permeation Ctrl: 0.00 μg/0.64 cm^2/25 hrs
[2]; ambient fluorescent light, sample with 2% (w/w) rutile TiO2
  Permeation Ctrl-TiO2: 0.00 μg/0.64 cm^2/25 hrs
